# Assay results taken from a melting point compilation (Tetko et al.; mined from patent text by program, amines drawn as free bases though some values may be those of a salt).
row,Structure (SMILES),melting point
1,COC(=O)C#Cc1cccc(C(=O)OC)c1,96 to 97 °C
2,COc1cc(OCC(=O)O)cc2c1C(=O)CC1(CCCCC1)S2,195 to 196 °C
3,O=C(Nc1ccc(N2CCCC2)cc1)N(C[C@H]1CC[C@H](CN(C(=O)Nc2ccc(N3CCCC3)cc2)C2CCCCCC2)CC1)C1CCCCCC1,152 to 155 °C
4,O=c1oc2c(-c3ccccc3)cccc2c(O)c1-c1ccccc1,211 °C
5,CCOC(=O)C1=C(COCCNS(=O)(=O)N2CCN(C)CC2)NC(C)=C(C(=O)OC)C1c1ccccc1Cl (centres undefined),137 to 139 °C
6,Cc1ccc(OCC(O)CNC(C)C)nc1 (centres undefined),62 to 67 °C
7,O=C1NCCNN1c1cc(C(F)(F)F)cc(Cl)n1,191 to 192 °C
8,O=C(O)C1=Cc2cc(SC(F)(F)F)ccc2SC1C(F)(F)F (centres undefined),129 to 132 °C
9,CC1=CC(C)(N)NC=C1 (centres undefined),79.5 to 81 °C
10,NC(=O)NN=Cc1ccc(Oc2ccc3c(c2)CCC3)cc1,218 to 220 °C
11,CCOC=CC(=O)Nc1cccc(C(=O)OC)c1,108 to 110 °C
12,CN1Cc2c(C#CCO)ncn2-c2cccc(Cl)c2C1=O,250 to 252 °C
13,Cc1ccc(S(=O)(=O)OCC2Cn3c(nc4c(C)cccc43)-c3cccc(Cl)c3O2)cc1 (centres undefined),168 to 169 °C
14,c1ccc(CCNc2cc(-n3cccn3)nc(-c3cccs3)n2)nc1,159 to 160 °C
15,O=[N+]([O-])c1ccc2c(c1Br)OCO2,87 to 89 °C
16,O=C(c1cc(C(F)(F)F)cc(C(F)(F)F)c1)N1CCN(C(=O)CN2CCC(O)(c3ccccc3)CC2)C(c2ccc(Cl)c(Cl)c2)C1 (racemic),104 to 106 °C
17,c1ccc(COc2cccc(CCCn3ccnn3)c2)cc1,74 to 75 °C
18,COP(=O)(CNC(=O)[C@H](C)NC(=O)[C@H](C)NC(=O)OCc1ccccc1)OC,106 to 108 °C
19,N#CC(Nc1cc(Cl)c(Cl)cc1Cl)c1ccccc1 (centres undefined),124 °C
20,COc1ccc(S(=O)(=O)N2CCc3cccc(-c4cc(OC)c(OC)c(OC)c4)c32)cc1,202 to 205 °C
21,CCNc1cncc(C(=NCCO[N+](=O)[O-])NC#N)c1,100 °C
22,CC1CC(=O)NN=C1c1ccc(NC(=O)C2(C)CC2)cc1 (centres undefined),235 to 237 °C
23,O=CNc1nc(CSc2ccncc2)cs1,182 to 184 °C
24,CCCN(CC1CC1)c1nc(C)[nH]c2c(-c3ccc(Cl)cc3Cl)nc(C)c1-2,66 to 68 °C
25,CCCS(=O)(=O)c1sc(C(N)=O)c2c1-c1c(cnn1CC)CC2,143 to 144 °C
26,CCCCOc1ccc(-c2nc3n(c2-c2ccc(OCCCC)cc2)CCS3)cc1,149 to 151 °C
27,CC1(C(=O)NC(CCC(=O)O)Cc2ccccc2)Cc2c([nH]c3ccccc23)CN1C(=O)OC1C2CC3CC(C2)CC1C3 (centres undefined),133 to 138 °C
28,C=CCN(CC=C)CC1Oc2c(cc(C)c3[nH]c(=O)ccc23)C1CF (centres undefined),68 to 71 °C

row,Structure (SMILES),melting point
1,COc1cc(N)ccc1NNC=O,113 to 116 °C
2,COC(=O)C1COC(c2ncn3c2CN(C)C(=O)c2c(Cl)cccc2-3)=N1 (centres undefined),216 to 218 °C
3,CCCN(CC)C(=O)c1ccc(CN2C(=O)C(c3ccccc3Cl)(N(C)C)c3cc(Cl)ccc32)cc1 (centres undefined),208 °C
4,O=C(CCCCCCC(=O)N1CCN(c2cccc(F)c2)CC1)NO,149 to 150 °C
5,O=[N+]([O-])c1cc(OCCCl)ccc1Cl,46 to 48 °C
6,O=C(O)/C=C/c1ccc(-c2nc3c(=O)n(CCC4=CCCCC4)c(=O)n(CCC4=CCCCC4)c3[nH]2)cc1,> 250 °C
7,Cc1cc(-c2ccc(S(C)(=O)=O)cc2)n(-c2ccc(-c3ccoc3)cc2)c1,154 to 156 °C
8,COC(CC1=C(C#N)C(c2cccc3nonc23)c2c[nH]nc2N1)OC (centres undefined),115 °C
9,O=CNc1nc(C(=NOC(=O)C(Cl)Cl)C(=O)O)ns1,123 °C
10,Oc1ccc2nc(Br)sc2c1,203 to 204 °C
11,CC(C)N1CCN(Cc2ccc(Cl)nc2)C1=N[N+](=O)[O-],138 to 142 °C
12,CC(=O)OC1C=C(C)C(=O)CC(C)(C)C1OC(=O)c1ccccc1 (centres undefined),86 to 87 °C
13,COC(C)(C)C(=O)O[C@H]1C[C@H](O)C=C2C=C[C@H](C)[C@H](CC[C@@H]3C[C@@H](O)CC(=O)O3)[C@H]21,150 to 152 °C
14,COc1ccc(-c2nc3cnncc3[nH]2)c(N(C)C)c1,226 °C
15,c1cc(CN2CCCCC2)cc(OCCCNc2nc3ccccc3[nH]2)c1,146 to 148 °C
16,COC(=O)c1cccc(OCCC(C#N)NC(=O)C(Cc2cccc(C)c2)NC(=O)C(c2ccccc2)c2ccccc2)c1 (centres undefined),152 to 153 °C
17,COc1ccc(C=O)c(Cl)c1O,204 to 206 °C
18,Cc1ccccc1C1CC(=O)c2c(C)c[nH]c2C1 (centres undefined),190 to 191 °C
19,CCC1(CCCCN2CCN(c3ccc(Cl)cc3)CC2)C(=O)Nc2c(Cl)cc(Cl)cc21 (centres undefined),152 to 154 °C
20,CCCC1(CC(=O)O)OCCc2c1[nH]c1c(F)ccc(C(=O)N3CCOCC3)c21 (centres undefined),98 to 100 °C
21,CCOC(C)(C)C#Cc1ncn2c1CN(C)C(=O)c1cc(F)ccc1-2,136 to 138 °C
22,COc1cc(N2CCC(N(C)C)C2)ccc1Nc1ncc2ccc(-c3ccccc3OC)n2n1 (centres undefined),70 to 78 °C
23,COc1cc(C(F)(F)F)ccc1C#N,59 to 61 °C
24,CS(=O)(=O)c1ccc(-c2nn(Cc3ccc(Cl)cc3Cl)c(=O)cc2-c2ccc(Cl)cc2)cc1,233 to 234 °C
25,Clc1ccc(-c2cc(C3CCN(CCc4ccccc4)CC3)n[nH]2)cc1,169 to 171 °C
26,Cc1nc(N(C)c2cc(Cl)cc(Cl)c2)sc1-c1ccnc(Nc2ccc(N3CCOCC3)cc2)n1,216 to 218 °C
27,C1=CC(n2nc(-c3ccc4ccccc4c3)cc2-c2ccccc2)(n2nc(-c3ccc4ccccc4c3)cc2-c2ccccc2)CC=C1c1ccccc1,287 °C

# Now from value to compound:
row,melting point,Structure (SMILES)
1,190 to 192 °C,CC(Cl)c1nc2c(C(F)(F)F)cccc2c(O)c1C(=O)Nc1nccs1 (centres undefined)
2,226 to 228 °C,COc1cn(-c2ccc(N3CCOCC3)cc2F)nc(-c2ccnn2-c2ccccc2)c1=O
3,103 to 104 °C,COc1cccc(-c2ccnc(Nc3cccc(OC(F)(F)C(F)F)c3)n2)c1
4,188 to 189 °C,COc1ccc(OC)c(Cc2nc3ccc(C)cc3c(=O)[nH]2)c1
5,50 to 51 °C,CCOC(=O)CC(=O)c1cccc([N+](=O)[O-])c1C
6,196 °C,COc1cc(Nc2nccc(-c3ccc([N+](=O)[O-])cc3)n2)cc(OC)c1OC
7,278 °C,S=c1[nH]c2cccnc2n1-c1ccc2c(c1)OCO2
8,192 to 193 °C,CSc1sc(C(N)=O)c2c1-c1sc(-c3ccccc3)cc1CC2
9,130 °C,CCOc1ccc(F)cc1C(=O)c1sc2ncccc2c1N
10,162 °C,Cc1ccc(OC(=O)C=Cc2ccccc2)c(C(=O)O)c1
11,184 °C,Fc1ccc(-c2csc(Nc3ccccc3C(F)(F)F)n2)cc1
12,202 to 204 °C,COC(=O)c1ccc2c(c1)C(Oc1ccccn1)C(O)C(C)(C)O2 (centres undefined)
13,124 to 125 °C,CC(C)(O)c1cccc(OCc2nc3cc(F)ccc3s2)c1
14,> 86 °C,COc1ccc(F)cc1Oc1c(NS(=O)(=O)c2ccc(C(C)(C)C)cc2)ncnc1OC[C@@H]1COC(C)(C)O1
15,242 to 244 °C,CCC(C)(C)Nc1c(NCc2ccc(F)cc2F)c(=O)c1=O
16,158 to 160 °C,Nc1nnc(-c2ccccc2OC(F)(F)C(F)F)c(N)n1
17,122 to 124 °C,O=C(c1ccccc1)c1cc2ccnc(N(Cc3ccccc3)Cc3ccccc3)c2[nH]1
18,196 °C,CCCCn1c(N)nc2ccc(C3CCc4cncn43)cc21 (centres undefined)
19,74 to 77 °C,COc1ccccc1-c1nn(C(C)C(=O)N(C)C)cc1Cl (centres undefined)
20,303 to 305 °C,Cc1c2c(c(-c3ccc(C(F)(F)F)cc3)c3c4c(ccc13)OCO4)CNC2=O
21,129 to 131 °C,COc1ccccc1-c1ccccc1C1=NC(C)(C)CO1
22,109 to 111 °C,CCCCCc1ccc(C(=O)Cc2cccc(C(=O)O)c2)cc1

row,melting point,Structure (SMILES)
1,210 °C,CCCCc1nc(CO)c(S(=O)(=O)CC)n1Cc1ccc(-c2ccccc2C(=O)O)cc1
2,166 to 167 °C,COc1ccccc1-c1cn(N=Cc2ccccc2)c(N)n1
3,244 to 245 °C,Cn1cc(CNC(=O)c2cc(N3CCN(Cc4ccc(F)cc4)C3=O)n[nH]2)cn1
4,58 to 61 °C,CCOC(=O)c1ccc(NC(=O)C(C)CS)nc1 (centres undefined)
5,217 °C,COc1ccc(C2Sc3ccccc3NC(=O)C2CO)cc1 (centres undefined)
6,238 °C,Oc1ccc(Sc2cnnc3ccccc23)cc1
7,208 to 210 °C,COC(=O)c1sc2ccc([N+](=O)[O-])cc2c1N
8,178 to 179 °C,COC(=O)c1cc(C#N)c2cc(Cc3ccc(F)cc3)cnc2c1O
9,142 to 143 °C,COc1ccc(-c2sc3cc(OC)ccc3c2C#N)cc1
10,266 °C,CN1CCN(c2cc3c(cc2F)c(=O)c(C(=O)O)cn3Cc2ccccc2)CC1
11,156 to 159 °C,CC(C)N1CC(c2cc(CCc3ccccc3)ncn2)=C(O)C1=O
12,241 to 250 °C,O=c1cc(-c2ccc3c(c2)CCCC3)[nH]c2ccccc12
13,64 to 66 °C,CCOC(=O)CCC(=O)c1ccc(CCNS(=O)(=O)c2cccc(Cl)c2)cc1
14,157 to 158 °C,CCN1c2ncc(CC(OC(C)=O)c3ccncc3)cc2C(=O)N(C)c2ccc(Cl)nc21 (centres undefined)
15,153 to 154 °C,CCOC(=O)c1ccc(-c2coc(-c3ccc(Cl)cc3)n2)cc1
16,168 to 181 °C,O=C(Nc1nc(-c2ccco2)c(C(=O)C2CCCC2)s1)c1ccncc1
17,264 °C,CCOc1cc(-c2cc(C(F)(F)F)n3ncc(C(=O)O)c3n2)ccc1C(F)(F)F
18,170 to 180 °C,N#CCc1cc(O)cc2nc(-c3ccc(O)cc3)oc12
19,209 to 211 °C,Nc1c(Cl)cc(C(=O)C=Cc2ccncc2)c2c1OCCO2
20,140 °C,CC(C)(C)OC(=O)Nc1cc(OCC2COC(=O)O2)c(C#Cc2ccccc2)cc1N (racemic)
21,153 to 154 °C,COC(=O)C=Cc1cc2ccccc2nc1Cl
22,192 °C,CCCC(CC(=O)Nc1cc(C(N)=O)ccc1C(C)(C)C)c1ccc(OC)cc1OC (centres undefined)
